Experiments:
Experiment in all cases: biochemical
Design in all cases: DiscoverX KinomeScan competition binding assay across human kinases; per cent of control at 10 and 100 uM
ABL1-phosphorylated = target: T1, ABL1-phosphorylated (Homo sapiens, UniProt P00519); details: competition binding, % of control
T1 construct: phosphorylated
In short: (§1)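 Binding is expressed as %control, normalised between positive and negative control signals. The compound (levosimendan) was tested at 10 μM and 100 μM in the DiscoverX KinomeScan competition binding format against human kinases.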

MAP4K2 = MAP4K2 (Homo sapiens, UniProt Q12851); details: competition binding, % of control; read-out: Percent Control (100 uM Levosimendan)
In short: as §1

IKK-beta = target: T2, IKK-beta (Homo sapiens, UniProt O14920); details: competition binding, % of control; read-out: Percent Control (100 uM Levosimendan)
T2 construct: gene IKBKB
In short: as §1

DDR2 = DDR2 (Homo sapiens, UniProt Q16832); details: competition binding, % of control; read-out: Percent Control (100 uM Levosimendan)
In short: as §1

PLK3 = PLK3 (Homo sapiens, UniProt Q9H4B4); details: competition binding, % of control; read-out: Percent Control (100 uM Levosimendan)
In short: as §1

NEK4 = NEK4 (Homo sapiens, UniProt P51957); details: competition binding, % of control; read-out: Percent Control (100 uM Levosimendan)
In short: as §1

MKNK1 = MKNK1 (Homo sapiens, UniProt Q9BUB5); details: competition binding, % of control; read-out: Percent Control (100 uM Levosimendan)
In short: as §1

EGFR(L747-T751del,Sins) = EGFR(L747-T751del,Sins) (Homo sapiens, UniProt P00533, DEL747-750/T751S); details: competition binding, % of control; read-out: Percent Control (100 uM Levosimendan)
In short: as §1

PRKX = PRKX (Homo sapiens, UniProt P51817); details: competition binding, % of control; read-out: Percent Control (100 uM Levosimendan)
In short: as §1

MARK2 = MARK2 (Homo sapiens, UniProt Q7KZI7); details: competition binding, % of control; read-out: Percent Control (100 uM Levosimendan)
In short: as §1

PDGFRA = PDGFRA (Homo sapiens, UniProt P16234); details: competition binding, % of control
In short: as §1

MYO3B = MYO3B (Homo sapiens, UniProt Q8WXR4); details: competition binding, % of control; read-out: Percent Control (100 uM Levosimendan)
In short: as §1

EPHA7 = EPHA7 (Homo sapiens, UniProt Q15375); details: competition binding, % of control; read-out: Percent Control (100 uM Levosimendan)
In short: as §1

CLK2 = CLK2 (Homo sapiens, UniProt P49760); details: competition binding, % of control; read-out: Percent Control (100 uM Levosimendan)
In short: as §1

HIPK2 = HIPK2 (Homo sapiens, UniProt Q9H2X6); details: competition binding, % of control; read-out: Percent Control (100 uM Levosimendan)
In short: as §1

SNRK = SNRK (Homo sapiens, UniProt Q9NRH2); details: competition binding, % of control; read-out: Percent Control (100 uM Levosimendan)
In short: as §1

CAMK1G = CAMK1G (Homo sapiens, UniProt Q96NX5); details: competition binding, % of control; read-out: Percent Control (100 uM Levosimendan)
In short: as §1

PRKCH = PRKCH (Homo sapiens, UniProt P24723); details: competition binding, % of control; read-out: Percent Control (100 uM Levosimendan)
In short: as §1

PHKG1 = PHKG1 (Homo sapiens, UniProt Q16816); details: competition binding, % of control; read-out: Percent Control (100 uM Levosimendan)
In short: as §1

[1] = read-out: Percent Control (10 uM Levosimendan)
[2] = read-out: Percent Control (100 uM Levosimendan)

T1 sequence (P00519 whole entry): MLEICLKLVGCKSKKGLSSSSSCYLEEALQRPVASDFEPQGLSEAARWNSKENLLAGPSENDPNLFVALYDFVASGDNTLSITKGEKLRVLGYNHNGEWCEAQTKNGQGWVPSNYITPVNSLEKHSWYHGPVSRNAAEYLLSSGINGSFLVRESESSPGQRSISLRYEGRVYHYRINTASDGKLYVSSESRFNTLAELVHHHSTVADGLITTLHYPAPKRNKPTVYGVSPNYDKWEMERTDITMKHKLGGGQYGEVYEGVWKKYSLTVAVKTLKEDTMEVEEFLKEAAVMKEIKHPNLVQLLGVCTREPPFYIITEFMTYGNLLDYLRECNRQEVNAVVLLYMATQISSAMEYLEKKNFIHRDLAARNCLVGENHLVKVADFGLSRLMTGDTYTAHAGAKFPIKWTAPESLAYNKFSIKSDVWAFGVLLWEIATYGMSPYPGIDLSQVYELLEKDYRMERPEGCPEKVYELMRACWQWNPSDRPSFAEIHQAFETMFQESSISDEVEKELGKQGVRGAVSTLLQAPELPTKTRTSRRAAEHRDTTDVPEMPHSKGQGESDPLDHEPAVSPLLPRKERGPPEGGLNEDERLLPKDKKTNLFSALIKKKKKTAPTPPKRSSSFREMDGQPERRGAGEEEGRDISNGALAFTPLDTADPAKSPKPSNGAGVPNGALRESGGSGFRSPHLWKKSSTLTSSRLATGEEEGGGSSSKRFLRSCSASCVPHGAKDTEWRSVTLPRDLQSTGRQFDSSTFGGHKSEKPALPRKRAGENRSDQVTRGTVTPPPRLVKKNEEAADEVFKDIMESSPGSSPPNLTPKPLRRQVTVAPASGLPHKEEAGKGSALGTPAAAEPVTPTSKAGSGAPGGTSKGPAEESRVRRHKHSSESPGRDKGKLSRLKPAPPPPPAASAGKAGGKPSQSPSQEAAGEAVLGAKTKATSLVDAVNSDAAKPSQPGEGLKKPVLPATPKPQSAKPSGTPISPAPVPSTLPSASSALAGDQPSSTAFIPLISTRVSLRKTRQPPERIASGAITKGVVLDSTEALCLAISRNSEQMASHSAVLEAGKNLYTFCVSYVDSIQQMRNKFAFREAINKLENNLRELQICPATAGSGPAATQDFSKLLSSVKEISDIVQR
PDGFRA, sequence (P16234 whole entry): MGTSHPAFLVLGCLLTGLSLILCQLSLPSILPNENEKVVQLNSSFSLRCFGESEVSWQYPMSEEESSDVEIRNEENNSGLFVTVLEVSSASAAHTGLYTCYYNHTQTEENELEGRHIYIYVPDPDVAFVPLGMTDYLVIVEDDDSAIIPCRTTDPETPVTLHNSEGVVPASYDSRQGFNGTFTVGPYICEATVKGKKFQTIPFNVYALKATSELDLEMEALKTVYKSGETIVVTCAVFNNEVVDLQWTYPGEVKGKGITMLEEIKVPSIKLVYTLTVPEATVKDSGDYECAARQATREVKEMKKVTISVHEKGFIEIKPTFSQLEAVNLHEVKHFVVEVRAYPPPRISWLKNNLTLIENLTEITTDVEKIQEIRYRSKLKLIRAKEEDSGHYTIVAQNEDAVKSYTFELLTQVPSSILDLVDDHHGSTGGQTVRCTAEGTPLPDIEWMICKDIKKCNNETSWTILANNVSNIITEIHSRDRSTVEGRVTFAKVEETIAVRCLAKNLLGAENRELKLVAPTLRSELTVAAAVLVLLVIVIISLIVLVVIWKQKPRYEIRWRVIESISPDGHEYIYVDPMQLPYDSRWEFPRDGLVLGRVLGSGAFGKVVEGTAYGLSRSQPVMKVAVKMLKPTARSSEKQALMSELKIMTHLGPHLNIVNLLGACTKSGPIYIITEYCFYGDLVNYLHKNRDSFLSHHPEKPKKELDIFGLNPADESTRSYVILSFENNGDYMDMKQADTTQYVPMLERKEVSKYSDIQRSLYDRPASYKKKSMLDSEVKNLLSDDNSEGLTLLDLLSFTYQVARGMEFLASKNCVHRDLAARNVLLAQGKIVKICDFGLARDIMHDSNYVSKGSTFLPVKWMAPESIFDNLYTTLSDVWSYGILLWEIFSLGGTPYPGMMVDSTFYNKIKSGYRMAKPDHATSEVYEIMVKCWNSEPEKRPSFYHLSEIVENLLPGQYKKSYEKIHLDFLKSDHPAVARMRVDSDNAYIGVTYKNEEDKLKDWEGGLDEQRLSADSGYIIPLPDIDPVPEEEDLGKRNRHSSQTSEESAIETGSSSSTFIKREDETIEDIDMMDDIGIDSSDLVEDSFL
PRKX, sequence (P51817 whole entry): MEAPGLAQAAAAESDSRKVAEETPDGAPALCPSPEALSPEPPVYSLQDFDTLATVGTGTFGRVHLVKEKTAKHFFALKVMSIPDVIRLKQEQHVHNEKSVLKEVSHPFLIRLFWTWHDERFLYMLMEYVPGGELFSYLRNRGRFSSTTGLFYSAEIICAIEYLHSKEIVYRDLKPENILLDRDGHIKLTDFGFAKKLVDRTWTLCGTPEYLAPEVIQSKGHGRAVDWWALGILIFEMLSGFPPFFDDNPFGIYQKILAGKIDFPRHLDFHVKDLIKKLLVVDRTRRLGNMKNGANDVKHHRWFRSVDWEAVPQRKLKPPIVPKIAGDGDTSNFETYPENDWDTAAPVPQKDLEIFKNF
MKNK1, sequence (Q9BUB5 whole entry): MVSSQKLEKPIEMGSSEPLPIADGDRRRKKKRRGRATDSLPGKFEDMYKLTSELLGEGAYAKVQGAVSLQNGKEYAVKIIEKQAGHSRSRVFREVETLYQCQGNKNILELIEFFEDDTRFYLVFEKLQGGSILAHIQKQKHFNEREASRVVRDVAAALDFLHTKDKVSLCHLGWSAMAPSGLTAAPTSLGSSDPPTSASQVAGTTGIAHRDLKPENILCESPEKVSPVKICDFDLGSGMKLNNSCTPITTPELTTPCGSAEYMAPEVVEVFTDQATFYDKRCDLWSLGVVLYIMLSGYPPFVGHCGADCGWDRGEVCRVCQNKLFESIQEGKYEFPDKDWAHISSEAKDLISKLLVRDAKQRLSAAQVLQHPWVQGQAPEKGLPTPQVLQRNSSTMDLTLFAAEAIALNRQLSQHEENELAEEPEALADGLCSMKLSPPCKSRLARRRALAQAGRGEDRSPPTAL
MYO3B, sequence (Q8WXR4 whole entry): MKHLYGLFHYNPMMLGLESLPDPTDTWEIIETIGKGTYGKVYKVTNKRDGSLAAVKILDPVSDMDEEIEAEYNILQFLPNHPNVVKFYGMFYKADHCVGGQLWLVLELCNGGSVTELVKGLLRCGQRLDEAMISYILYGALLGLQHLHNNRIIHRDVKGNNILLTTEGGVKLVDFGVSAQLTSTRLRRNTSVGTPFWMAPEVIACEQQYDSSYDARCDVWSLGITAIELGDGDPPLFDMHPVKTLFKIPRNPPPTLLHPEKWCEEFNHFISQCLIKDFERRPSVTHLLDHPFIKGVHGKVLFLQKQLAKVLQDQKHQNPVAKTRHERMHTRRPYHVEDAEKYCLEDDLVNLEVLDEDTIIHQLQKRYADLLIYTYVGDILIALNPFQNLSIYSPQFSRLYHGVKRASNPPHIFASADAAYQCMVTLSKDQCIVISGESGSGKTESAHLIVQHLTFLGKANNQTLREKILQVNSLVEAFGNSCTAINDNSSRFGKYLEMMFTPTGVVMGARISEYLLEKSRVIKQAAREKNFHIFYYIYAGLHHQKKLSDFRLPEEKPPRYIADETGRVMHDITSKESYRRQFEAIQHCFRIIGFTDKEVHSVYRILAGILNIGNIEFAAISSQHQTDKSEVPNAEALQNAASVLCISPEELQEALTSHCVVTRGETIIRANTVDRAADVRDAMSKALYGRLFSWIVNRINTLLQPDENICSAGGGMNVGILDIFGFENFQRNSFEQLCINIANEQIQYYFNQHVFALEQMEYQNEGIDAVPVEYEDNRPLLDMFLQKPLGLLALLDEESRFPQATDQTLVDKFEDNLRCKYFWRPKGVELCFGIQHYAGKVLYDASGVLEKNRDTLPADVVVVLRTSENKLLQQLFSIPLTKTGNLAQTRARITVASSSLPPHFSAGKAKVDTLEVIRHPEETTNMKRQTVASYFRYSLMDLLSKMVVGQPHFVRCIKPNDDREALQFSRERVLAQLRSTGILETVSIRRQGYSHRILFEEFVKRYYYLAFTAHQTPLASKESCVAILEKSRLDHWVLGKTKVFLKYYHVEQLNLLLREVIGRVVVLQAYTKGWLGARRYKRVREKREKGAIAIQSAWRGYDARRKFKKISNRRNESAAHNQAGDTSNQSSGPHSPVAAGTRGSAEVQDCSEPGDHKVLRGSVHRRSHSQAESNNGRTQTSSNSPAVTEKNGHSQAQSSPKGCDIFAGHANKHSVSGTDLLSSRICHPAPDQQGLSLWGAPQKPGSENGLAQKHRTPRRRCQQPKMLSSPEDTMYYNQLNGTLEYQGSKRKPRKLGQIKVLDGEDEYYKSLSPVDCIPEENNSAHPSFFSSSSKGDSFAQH
CAMK1G, sequence (Q96NX5 whole entry): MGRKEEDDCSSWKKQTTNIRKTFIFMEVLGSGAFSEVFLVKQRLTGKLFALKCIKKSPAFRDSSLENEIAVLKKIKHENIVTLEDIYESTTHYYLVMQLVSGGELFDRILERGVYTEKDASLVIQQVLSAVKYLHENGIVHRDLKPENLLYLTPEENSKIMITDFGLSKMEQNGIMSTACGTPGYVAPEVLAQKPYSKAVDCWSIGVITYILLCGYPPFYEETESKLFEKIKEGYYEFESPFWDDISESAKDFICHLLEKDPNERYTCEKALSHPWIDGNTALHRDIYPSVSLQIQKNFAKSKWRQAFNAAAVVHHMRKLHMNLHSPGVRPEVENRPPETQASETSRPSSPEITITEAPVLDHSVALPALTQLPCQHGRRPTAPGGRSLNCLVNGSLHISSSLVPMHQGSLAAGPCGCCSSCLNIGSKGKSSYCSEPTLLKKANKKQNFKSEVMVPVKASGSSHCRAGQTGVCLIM

C[C@@H]1CC(=O)NN=C1c1ccc(NN=C(C#N)C#N)cc1 [levosimendan]
remaining binding at 10 µM (ABL1-phosphorylated; [1]): 100%
remaining binding at 100 µM (ABL1-phosphorylated; [2]): 37%
remaining binding at 100 µM (MAP4K2): 100%
remaining binding at 100 µM (IKK-beta): 74%
remaining binding at 100 µM (DDR2): 79%
remaining binding at 100 µM (PLK3): 97%
remaining binding at 100 µM (NEK4): 100%
remaining binding at 100 µM (MKNK1): 65%
remaining binding at 100 µM (EGFR(L747-T751del,Sins)): 59%
remaining binding at 100 µM (PRKX): 76%
remaining binding at 100 µM (MARK2): 95%
remaining binding at 10 µM (PDGFRA; [1]): 73%
remaining binding at 100 µM (PDGFRA; [2]): 37%
remaining binding at 100 µM (MYO3B): 100%
remaining binding at 100 µM (EPHA7): 85%
remaining binding at 100 µM (CLK2): 69%
remaining binding at 100 µM (HIPK2): 69%
remaining binding at 100 µM (SNRK): 100%
remaining binding at 100 µM (CAMK1G): 62%
remaining binding at 100 µM (PRKCH): 69%
remaining binding at 100 µM (PHKG1): 89%

— PMC6576746, “Rational discovery of dual-indication multi-target PDE/Kinase inhibitor for precision anti-cancer therapy using structural systems pharmacology” (PLoS Computational Biology, 2019)
